Patent US20080200479A1, “Ocaperidone Salts and Pharmaceutical Compositions Containing the Same” (priority 2005, published 2008)
Values after ≈ are worked out from the molar mass of the structure shown. Structures can show the parent of a compound that is named as a salt.

Key:
[1] = Solubility of ocaperidone salts and free base in water; conditions: for solubility in water (in words): crystalline salt, HPLC grade water pH=6, 25° C., 1 h and 24 h, compared with salts of examples 1, 3-10 and free base
Protocol: In particular, the solubilities of ocaperidone salts were measured as follows:
UV/visible spectrophotometer: Agilent 8453E
Volumetric flask (5 ml, 10 ml, 20 ml, 100 ml) Mechanical pipettes: Biohit (m1000, m200)
Magnetic stirrer: Heidolph MR3001K
A suspension of 100 mg of crystalline ocaperidone salt or ocaperidone free base in 1 ml HPLC grade pure water (pH=6) was prepared. The suspension was kept at fixed and controlled temperature (ex: 25° C.) under magnetic stirring for 24 hours. A sample was taken, filtered and the solubility of the ocaperidone salts or ocaperidone free base was measured after 1 h and 24 h. Results are given in g/100 ml.

[2] = Solubility of ocaperidone free base in acid solution; format: physicochemical; conditions: acid solution at pH=1.3

| SMILES | solubility in water (in words) [1] | solubility in water (in words) ([1]; listed as ocaperidone pyroglutamic salt) | times more soluble than the succinic acid addition salt ([1]; ocaperidone salt solubility study in water, ratio to succinic acid addition salt) [times] | solubility thermodynamic ([1]; 25 °C, pH 6, water, thermodynamic from solid) [µg/mL] | solubility in acid solution [2] [g/100 ml] |
| --- | --- | --- | --- | --- | --- |
| Cc1nc2c(C)cccn2c(=O)c1CCN1CCC(c2noc3cc(F)ccc23)CC1 [Example 2, Ocaperidone Pyroglutamic Acid Salt] | higher solubility in water than the other salts | unexpectedly high solubility | 31.2 | – | – |
| Cc1nc2c(C)cccn2c(=O)c1CCN1CCC(c2noc3cc(F)ccc23)CC1 [ocaperidone, 3-[2-[4-(6-fluoro-1,2-benzisoxazol-3-yl)-1-piperidinyl]ethyl]-2,9-dimethyl-pyrido-[1,2-a]pyrimidin-4-one] | – | – | – | 7 (≈ 16.6 µM) | 0.25 |
